Reference: ChEMBL document CHEMBL1153962, “Thiodisaccharides with galactofuranose or arabinofuranose as terminal units: synthesis and inhibitory activity of an exo beta-D-galactofuranosidase” (Bioorg Med Chem, 2009)
Active and inactive are the calls of the source. No cut-off for these calls is given here.

How the values were obtained:
Penicillium fellutanum = assay: Inhibition of Penicillium fellutanum exo beta-D-galactofuranosidase assessed as 4-nitrophenol release at 0.2 to 1 mM by spectrophotometry
[1] = Inhibition of Penicillium fellutanum exo beta-D-galactofuranosidase assessed as 4-nitrophenol release by spectrophotometry

| Activity (Penicillium fellutanum) | IC50 [1] [µM] | SMILES |
| --- | --- | --- |
| Active | > 1000 | CO[C@H]1O[C@H](CS[C@@H]2O[C@@H]([C@H](O)CO)[C@H](O)[C@H]2O)[C@H](O)[C@H](O)[C@H]1O |
|  | 20 | O=C1O[C@@H]([C@H](O)CO)[C@H](O)[C@H]1O |
| Active | > 1000 | CC1(C)O[C@H]2[C@@H](O1)[C@@H](CS[C@@H]1O[C@@H]([C@H](O)CO)[C@H](O)[C@H]1O)O[C@@H]1OC(C)(C)O[C@@H]12 |
| inactive |  | CO[C@H]1O[C@H](CS[C@@H]2O[C@@H](CO)[C@H](O)[C@H]2O)[C@@H](O)[C@H](O)[C@H]1O |
